The structures appear in SMILES notation.

The values below come from patent US11453647B2, “Benzimidazole derivatives as adenosine receptor antagonists” (Merck Patent GmbH, priority 2017, dated 2022).

Data set [1] deals with T1, A2B receptors (Homo sapiens, UniProt P29275).
T1 sequence (P29275 1-332): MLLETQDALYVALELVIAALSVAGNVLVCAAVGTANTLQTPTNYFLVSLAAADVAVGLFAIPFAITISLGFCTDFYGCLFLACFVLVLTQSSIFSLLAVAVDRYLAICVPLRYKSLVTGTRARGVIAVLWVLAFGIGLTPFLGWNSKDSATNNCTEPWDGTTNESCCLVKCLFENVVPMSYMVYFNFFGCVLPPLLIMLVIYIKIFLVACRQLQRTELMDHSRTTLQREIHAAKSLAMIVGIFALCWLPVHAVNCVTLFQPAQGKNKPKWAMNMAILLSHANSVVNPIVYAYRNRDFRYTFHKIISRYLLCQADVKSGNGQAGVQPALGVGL
The settings on record: antagonists; cited from earlier work.

Data set [2] concerns the target T1, A2B receptors. In words: functional cAMP (HTRF) assay, recombinant HEK293 cells expressing human A2B receptor, agonist NECA. Set-up: expressed in transfected cells; host or cells: HEK293. Format: cell-based. On the technique in general: TR-FRET usually uses a lanthanide donor and a delayed reading to cut background.
The nature of data set [3]: pharmacokinetic properties in mouse after single intravenous and oral administration. In kind it is in vivo. The settings on record: PK data in mouse; for Feces iv: @0.2 (dose, unit not given); for clearance / half-life / Cmax / Vd: female, plasma, 0.2 mg/kg; for Cmax: dose-normalized to 1 mg/kg; for Vd: read-out: Vss. The text has this: The objective of the study was to obtain information on the pharmacokinetic properties of the compounds of the present invention in female Wistar rats/mice following single intravenous and oral administration.
Female Wistar rats/mice (n=6) received either a single intravenous (bolus) injection or an oral administration (by gavage) of the tested compound.
The concentrations of the compounds in plasma, feces were quantified using an UPLC method with tandem mass spectrometric detection (LC-MS/MS) previously developed at the ‘Institute of Drug Metabolism and Pharmacokinetics’. The LC-MS/MS system consisted of a Waters Acquity UPLC coupled to an AB Sciex mass spectrometer API 5500 Q-trap. […] The detection of the compounds was performed using multiple reaction monitoring in the positive ionization mode. Plasma samples were spiked with internal standard (20 μl) and the analyte was extracted from the matrix using tertiary-butyl methyl ether (tBME). The organic phase was evaporated to dryness under a stream of nitrogen. The residue was dissolved in acetonitrile/0.1% formic acid for LC-MS/MS analysis. Feces samples were homogenized with 4-times their volume of an ethanol/water mixture (4:1, v/v). Aliquots of the aqueous-ethanolic extracts were spiked with internal standard, diluted with acetonitrile/water (1:1, v/v) and directly injected into the LC-MS/MS system.
Pharmacokinetic parameters Cmax and tmax were taken from the observed data. […] AUC values were calculated by non-compartmental analysis using the linear up/log down method. Numerical data for mean plasma concentrations and derived pharmacokinetic parameters were rounded to 3 significant digits for presentation.

The next data set concerns the target T2, human A2A receptor (Homo sapiens, UniProt P29274).
T2 construct: expressed in transfected cells; host or cells: HEK293
Nature of the data set: functional cAMP (HTRF) assay, recombinant HEK293 cells expressing human A2A receptor, agonist NECA. In kind it is cell-based.

Data set [4] has as its system mouse Pan T cells. In words: mouse Pan T cell IL-2 rescue from A2A agonist CGS-21680 (ELISA, 24 h). In kind it is cell-based. The settings on record: Mus musculus, T-cell. The source says:
(§1) Adenosine (Ado) in tumor microenvironment can inhibit T cell activity by signaling through A2A receptors and suppress cytokine secretion by T cells. […] Potential A2A antagonists or A2A/A2B dual antagonists can rescue T cells from this inhibition. Herein, we describe the in vitro system we established using Pan T cells from mouse spleens to screen potential A2A antagonists or A2A/A2B dual antagonists for their activity. The method described involves the use of CD3/CD28 pre-coated beads to stimulate Pan T cells purified from mouse splenocytes, combined with the addition of A2A agonist along with potential A2A or A2A/A2B dual antagonists to evaluate potentiation of T cell cytokine production.
(§2) Briefly, mouse Pan T cells are purified from spleens of BALB/c mice using Pan T cell isolation kit Mouse II (MACS Miltenyi biotech Cat # Order no. 130-095-130) according to manufacturer's protocol. The purified T cells are seeded in Nunc™ 96-Well Polystyrene Round Bottom Microwell Plates in RPMI medium with 10% heat inactivated fetal bovine serum. The cells are rested at 37° C. for 1 h before activating with CD3/CD28 pre-coated beads (Dynabeads™ Mouse T-Activator CD3/CD28; Cat #11456D). After 30 min the cells are treated with varying doses of test antagonist(s). […] After 24 h incubation IL-2 levels in the supernatants and after 48 h incubation IFN-γ levels in the supernatants are measured by ELISAs according to manufacturer's protocol (R&D systems Cat # DY402 (IL-2); DY485 (IFN-γ)). Once the concentrations are calculated, the difference of cytokine concentration of DMSO control and agonist alone control is calculated (called A) and the percentage of rescue by each concentration of antagonist is calculated by using Microsoft Excel. These percentages of cytokine rescue in a dose dependent manner of antagonist is plotted in GraphPad Prism software and IC50 is calculated.
Background: ELISA stands for enzyme-linked immunosorbent assay.

Data set [5] relates to mouse Pan T cells. In words: mouse Pan T cell IFN-γ rescue from A2A agonist CGS-21680 (ELISA, 48 h). Format: cell-based. As to conditions: Mus musculus, T-cell.
Text: as §1, §2

A further data set deals with T3, human A3 receptor (Homo sapiens, UniProt P0DMS8).
T3 construct: expressed in transfected cells; host or cells: CHO
T3 sequence (P0DMS8 1-318): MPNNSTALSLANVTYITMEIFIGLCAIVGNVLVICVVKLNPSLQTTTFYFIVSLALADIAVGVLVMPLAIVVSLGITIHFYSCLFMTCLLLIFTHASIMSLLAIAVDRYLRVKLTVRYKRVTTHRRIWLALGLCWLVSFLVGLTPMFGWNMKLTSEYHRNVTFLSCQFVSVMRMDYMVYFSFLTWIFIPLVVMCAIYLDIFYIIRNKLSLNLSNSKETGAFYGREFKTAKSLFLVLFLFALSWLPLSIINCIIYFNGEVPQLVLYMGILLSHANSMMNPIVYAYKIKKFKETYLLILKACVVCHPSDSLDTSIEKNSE
In words: functional cAMP (HTRF) assay, recombinant CHO cells expressing human A3 receptor, forskolin, agonist IB-MECA. In kind it is cell-based. The method in brief: (§3)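 Recombinant CHO lines carrying either receptor receive forskolin, compound and the matching agonist, CPA or IB-MECA. After 30 min, HTRF reagents are added and cAMP is quantified. Values are normalized to inhibitor and neutral DMSO controls, then fitted.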

A further data set deals with T4, human A1 receptor (Homo sapiens, UniProt P30542).
T4 construct: expressed in transfected cells; host or cells: CHO
T4 sequence (P30542 1-326): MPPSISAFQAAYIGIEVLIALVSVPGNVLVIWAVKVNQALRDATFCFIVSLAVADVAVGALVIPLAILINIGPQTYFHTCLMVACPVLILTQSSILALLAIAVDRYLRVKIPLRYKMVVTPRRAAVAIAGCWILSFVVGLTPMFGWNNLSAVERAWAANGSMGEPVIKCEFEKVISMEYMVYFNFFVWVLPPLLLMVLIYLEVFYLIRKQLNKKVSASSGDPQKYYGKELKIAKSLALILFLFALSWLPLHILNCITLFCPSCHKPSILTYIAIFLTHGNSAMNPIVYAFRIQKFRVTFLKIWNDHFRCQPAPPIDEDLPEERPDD
Nature of the data set: functional cAMP (HTRF) assay, recombinant CHO cells expressing human A1 receptor, forskolin, agonist CPA. In kind it is cell-based. The method in brief:
as §3

T2 sequence (P29274 whole entry): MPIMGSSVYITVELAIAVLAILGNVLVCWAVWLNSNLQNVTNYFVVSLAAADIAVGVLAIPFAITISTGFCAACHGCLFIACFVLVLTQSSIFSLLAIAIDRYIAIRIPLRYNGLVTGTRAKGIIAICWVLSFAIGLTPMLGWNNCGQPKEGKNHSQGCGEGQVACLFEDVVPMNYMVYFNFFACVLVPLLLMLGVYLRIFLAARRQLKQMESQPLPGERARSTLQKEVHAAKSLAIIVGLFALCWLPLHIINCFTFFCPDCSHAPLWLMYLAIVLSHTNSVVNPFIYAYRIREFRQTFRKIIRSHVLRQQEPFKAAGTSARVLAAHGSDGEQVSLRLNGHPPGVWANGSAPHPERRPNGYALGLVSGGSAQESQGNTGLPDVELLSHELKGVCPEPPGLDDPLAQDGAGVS

As for `CCCn1c(=O)c2[nH]c(-c3ccc(S(=O)(=O)O)cc3)nc2n(CCC)c1=O` [DPSPX, 1,3-dipropyl-8-sulphophenylxanthine], at A2B receptors [1], the “affinities on A2B receptors” value is on record as “mid to high nM range”.

Turning to `O=c1[nH]c(=O)c2nc3ccccc3nc2[nH]1` [alloxazine, 2,4-dioxobenzopteridine], the “affinities on A2B receptors” value at A2B receptors [1] is on record as “mid to high nM range”.

One may read the IC50 as the concentration needed to halve the response being measured. By half-life is commonly meant how long it takes for the measured level to halve. The low end stands for rapid decline, the high end for slow decline. A word on the Cmax: it is the maximum level reached in the sampled fluid or tissue. In the case of `COc1ccc(-c2cnn(C)c2)c2nc(NC(=O)c3ccc(C(=O)N(C)C)cc3)[nH]c12` [compound 93, N4-[7-methoxy-4-(1-methyl-1H-pyrazol-4-yl)-1H-1,3-benzodiazol-2-yl]-N1,N1-dimethylbenzene-1,4-dicarboxamide], the IC50 at A2B receptors [2] is under 0.1 µM; on human A2A receptor it was under 0.01 µM; in the data set on mouse Pan T cells [4], 0.111 µM; in the data set on mouse Pan T cells [5], 0.35 µM; at human A3 receptor, over 1 µM; at human A1 receptor it was over 1 µM. The Feces iv in data set [3] is reported as 42@0.2%. This compound showed a clearance in data set [3] of 0.406 L/h/kg. The compound also showed a half-life in data set [3] of 46.1 min. In data set [3], this compound yielded a Cmax of 3.16 µg/mL. In data set [3], the Vd turned out to be 0.357 L/kg.

As for `COc1ccc(-c2cnn(C)c2)c2nc(NC(=O)c3ccc(CN4CCCC4=O)cc3)[nH]c12` [compound 100, N-[7-methoxy-4-(1-methyl-1H-pyrazol-4-yl)-1H-1,3-benzodiazol-2-yl]-4-[(2-oxopyrrolidin-1-yl)methyl]benzamide], the IC50 was under 1 µM at A2B receptors [2]; under 0.01 µM on human A2A receptor; 0.1 µM in the data set with mouse Pan T cells [4]; 0.08 µM in the data set on mouse Pan T cells [5]; over 1 µM at human A3 receptor; over 1 µM on human A1 receptor. Moreover, in data set [3], the Feces iv is given as 12.5@0.2%. The clearance in data set [3] was 1.35 L/h/kg. In addition, the half-life in data set [3] is 32.9 min. Also, the highest level in data set [3] (Cmax) was 0.888 µg/mL. Besides, in data set [3], the Vd is 1.05 L/kg.

As to `COc1ccc(-c2cnn(C)c2)c2nc(NC(=O)N3CC[C@@]4(CCCOC4)C3)[nH]c12` [compound 114, (5S)-N-[7-methoxy-4-(1-methyl-1H-pyrazol-4-yl)-1H-1,3-benzodiazol-2-yl]-7-oxa-2-azaspiro[4.5]decane-2-carboxamide], the IC50 is over 1 µM on A2B receptors [2]; under 0.01 µM on human A2A receptor; 0.9 µM in the data set on mouse Pan T cells [4]; 0.9 µM with mouse Pan T cells [5]; over 1 µM at human A3 receptor; over 1 µM at human A1 receptor. Besides, the Feces iv in data set [3] was 9@0.2%. In data set [3], this compound showed a clearance of 0.566 L/h/kg. Also, the half-life in data set [3] is 66.6 min. For the same compound, the Cmax in data set [3] stood at 1.44 µg/mL. Also, the Vd in data set [3] turned out to be 0.842 L/kg.

As to `CCCn1c(=O)[nH]c(=O)c2[nH]cnc21` [enprofylline, 3-n-propylxanthine], the “affinities on A2B receptors” value on A2B receptors [1] is reported as “mid to high nM range”.
